Laboratory results as given in paper PMC8213057, “Targeting ALK2: An Open Science Approach to Developing Therapeutics for the Treatment of Diffuse Intrinsic Pontine Glioma” (Journal of Medicinal Chemistry, 2020).

Key:
[1] = target: T1, ALK4/ACVR1B (Homo sapiens, UniProt P36896); test: 375-member kinase panel; assay type: biochemical; settings: Run 1, Run 2; for % enzyme activity: 1 μM; for remaining activity at 1 µM: read-out: % enzyme activity, 1 μM
T1 construct: purchased Reaction Biology Corporation
T1 sequence (P36896 24-505): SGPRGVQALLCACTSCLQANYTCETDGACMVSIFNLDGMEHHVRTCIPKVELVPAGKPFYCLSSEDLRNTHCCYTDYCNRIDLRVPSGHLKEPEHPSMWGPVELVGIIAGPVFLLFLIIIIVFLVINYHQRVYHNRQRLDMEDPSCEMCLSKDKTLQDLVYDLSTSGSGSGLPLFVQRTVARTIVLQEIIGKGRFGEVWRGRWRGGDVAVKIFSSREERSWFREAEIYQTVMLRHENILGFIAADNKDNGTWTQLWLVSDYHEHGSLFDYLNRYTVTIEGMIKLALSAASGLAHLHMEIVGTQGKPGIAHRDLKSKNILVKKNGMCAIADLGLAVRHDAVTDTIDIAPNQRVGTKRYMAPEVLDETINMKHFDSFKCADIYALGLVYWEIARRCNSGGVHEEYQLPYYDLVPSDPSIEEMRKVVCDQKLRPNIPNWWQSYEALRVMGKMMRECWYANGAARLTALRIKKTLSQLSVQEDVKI

[2] = target: CDK2/cyclin A (Homo sapiens, UniProt P24941); test: biochemical; settings: read-out: % enzyme activity, 1 μM; Run 1, Run 2
[3] = target: T2, GRK1 (Homo sapiens, UniProt Q15835); settings: 1 μM; Run 1, Run 2
T2 sequence (Q15835 1-563): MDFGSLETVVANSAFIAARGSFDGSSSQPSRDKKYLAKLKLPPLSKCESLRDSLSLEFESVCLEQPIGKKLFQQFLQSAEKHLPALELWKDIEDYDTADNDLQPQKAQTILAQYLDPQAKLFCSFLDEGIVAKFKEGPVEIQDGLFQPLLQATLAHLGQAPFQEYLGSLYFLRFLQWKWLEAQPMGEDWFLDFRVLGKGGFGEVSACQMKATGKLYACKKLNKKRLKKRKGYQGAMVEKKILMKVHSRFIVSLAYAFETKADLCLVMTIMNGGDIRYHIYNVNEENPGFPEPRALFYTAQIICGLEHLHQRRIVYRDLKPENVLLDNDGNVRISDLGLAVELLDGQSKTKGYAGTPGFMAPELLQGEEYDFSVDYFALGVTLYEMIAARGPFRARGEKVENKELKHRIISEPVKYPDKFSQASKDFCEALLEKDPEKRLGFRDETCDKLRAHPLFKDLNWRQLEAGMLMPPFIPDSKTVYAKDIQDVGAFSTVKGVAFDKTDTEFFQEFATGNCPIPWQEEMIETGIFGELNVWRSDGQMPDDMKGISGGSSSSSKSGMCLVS

[4] = target: T3, EPHB3 (Homo sapiens, UniProt P54753); test: biochemical; settings: read-out: % enzyme activity, 1 μM; Run 1, Run 2
T3 sequence (P54753 34-998): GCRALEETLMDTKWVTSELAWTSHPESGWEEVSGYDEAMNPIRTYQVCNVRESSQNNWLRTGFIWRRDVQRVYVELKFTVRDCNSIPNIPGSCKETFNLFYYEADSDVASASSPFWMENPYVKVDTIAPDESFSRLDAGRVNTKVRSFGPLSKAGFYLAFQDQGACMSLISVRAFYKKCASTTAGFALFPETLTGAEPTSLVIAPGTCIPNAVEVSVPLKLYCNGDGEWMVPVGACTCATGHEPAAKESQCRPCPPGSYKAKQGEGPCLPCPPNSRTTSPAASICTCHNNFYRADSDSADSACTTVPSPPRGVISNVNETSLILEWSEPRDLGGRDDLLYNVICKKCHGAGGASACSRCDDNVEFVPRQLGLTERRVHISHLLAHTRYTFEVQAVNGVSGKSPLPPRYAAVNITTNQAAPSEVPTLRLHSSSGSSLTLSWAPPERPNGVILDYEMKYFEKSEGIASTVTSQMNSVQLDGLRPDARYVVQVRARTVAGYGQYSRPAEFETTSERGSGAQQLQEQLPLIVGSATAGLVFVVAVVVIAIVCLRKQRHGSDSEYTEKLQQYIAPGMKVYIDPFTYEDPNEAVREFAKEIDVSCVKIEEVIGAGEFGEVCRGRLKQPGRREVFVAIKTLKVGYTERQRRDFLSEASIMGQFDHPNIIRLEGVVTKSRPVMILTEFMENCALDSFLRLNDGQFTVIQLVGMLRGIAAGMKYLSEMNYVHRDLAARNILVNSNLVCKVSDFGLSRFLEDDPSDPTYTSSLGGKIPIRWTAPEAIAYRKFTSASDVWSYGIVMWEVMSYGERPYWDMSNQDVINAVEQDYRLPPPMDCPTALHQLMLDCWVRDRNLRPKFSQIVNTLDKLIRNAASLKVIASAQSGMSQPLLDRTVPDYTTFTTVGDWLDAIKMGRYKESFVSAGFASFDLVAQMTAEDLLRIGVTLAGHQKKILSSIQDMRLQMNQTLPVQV

[5] = target: STK25/YSK1 (Homo sapiens, UniProt O00506); test: biochemical; settings: read-out: % enzyme activity, 1 μM; Run 1, Run 2
[6] = target: PKN3/PRK3 (Homo sapiens, UniProt Q6P5Z2); settings: 1 μM; Run 1, Run 2
[7] = target: CDK5/P25 (Homo sapiens, UniProt Q00535); test: biochemical; settings: read-out: % enzyme activity, 1 μM; Run 1, Run 2
[8] = target: T4, NEK11 (Homo sapiens, UniProt Q8NG66); test: biochemical; settings: read-out: % enzyme activity, 1 μM; Run 1, Run 2
T4 sequence (Q8NG66 1-645): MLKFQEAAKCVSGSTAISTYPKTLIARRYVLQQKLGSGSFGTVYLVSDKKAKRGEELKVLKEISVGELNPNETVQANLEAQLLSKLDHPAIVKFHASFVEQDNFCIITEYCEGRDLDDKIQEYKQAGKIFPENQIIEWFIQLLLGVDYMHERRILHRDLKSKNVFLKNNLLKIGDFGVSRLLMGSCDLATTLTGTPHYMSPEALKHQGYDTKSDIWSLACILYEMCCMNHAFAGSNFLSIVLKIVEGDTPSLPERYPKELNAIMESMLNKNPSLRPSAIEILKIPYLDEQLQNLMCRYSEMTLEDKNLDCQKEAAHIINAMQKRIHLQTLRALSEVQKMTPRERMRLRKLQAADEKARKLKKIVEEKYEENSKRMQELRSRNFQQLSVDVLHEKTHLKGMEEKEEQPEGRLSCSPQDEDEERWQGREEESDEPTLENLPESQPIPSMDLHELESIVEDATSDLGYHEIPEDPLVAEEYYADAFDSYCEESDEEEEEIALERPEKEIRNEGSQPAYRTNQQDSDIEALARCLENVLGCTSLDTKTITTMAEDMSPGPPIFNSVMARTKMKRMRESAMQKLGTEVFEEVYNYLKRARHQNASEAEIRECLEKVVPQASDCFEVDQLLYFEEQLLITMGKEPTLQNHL

STK25/YSK1, sequence (O00506 whole entry): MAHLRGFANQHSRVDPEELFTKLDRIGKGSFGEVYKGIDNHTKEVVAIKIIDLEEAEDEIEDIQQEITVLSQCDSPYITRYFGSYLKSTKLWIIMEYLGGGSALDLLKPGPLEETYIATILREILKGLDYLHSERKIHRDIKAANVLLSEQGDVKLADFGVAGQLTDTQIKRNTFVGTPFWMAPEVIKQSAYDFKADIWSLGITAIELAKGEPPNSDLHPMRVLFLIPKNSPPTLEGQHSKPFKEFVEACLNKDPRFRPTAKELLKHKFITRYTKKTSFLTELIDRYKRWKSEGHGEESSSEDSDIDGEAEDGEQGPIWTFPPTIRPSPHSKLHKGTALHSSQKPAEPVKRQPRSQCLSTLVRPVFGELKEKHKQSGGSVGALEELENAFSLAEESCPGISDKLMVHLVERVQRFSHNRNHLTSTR
PKN3/PRK3, sequence (Q6P5Z2 whole entry): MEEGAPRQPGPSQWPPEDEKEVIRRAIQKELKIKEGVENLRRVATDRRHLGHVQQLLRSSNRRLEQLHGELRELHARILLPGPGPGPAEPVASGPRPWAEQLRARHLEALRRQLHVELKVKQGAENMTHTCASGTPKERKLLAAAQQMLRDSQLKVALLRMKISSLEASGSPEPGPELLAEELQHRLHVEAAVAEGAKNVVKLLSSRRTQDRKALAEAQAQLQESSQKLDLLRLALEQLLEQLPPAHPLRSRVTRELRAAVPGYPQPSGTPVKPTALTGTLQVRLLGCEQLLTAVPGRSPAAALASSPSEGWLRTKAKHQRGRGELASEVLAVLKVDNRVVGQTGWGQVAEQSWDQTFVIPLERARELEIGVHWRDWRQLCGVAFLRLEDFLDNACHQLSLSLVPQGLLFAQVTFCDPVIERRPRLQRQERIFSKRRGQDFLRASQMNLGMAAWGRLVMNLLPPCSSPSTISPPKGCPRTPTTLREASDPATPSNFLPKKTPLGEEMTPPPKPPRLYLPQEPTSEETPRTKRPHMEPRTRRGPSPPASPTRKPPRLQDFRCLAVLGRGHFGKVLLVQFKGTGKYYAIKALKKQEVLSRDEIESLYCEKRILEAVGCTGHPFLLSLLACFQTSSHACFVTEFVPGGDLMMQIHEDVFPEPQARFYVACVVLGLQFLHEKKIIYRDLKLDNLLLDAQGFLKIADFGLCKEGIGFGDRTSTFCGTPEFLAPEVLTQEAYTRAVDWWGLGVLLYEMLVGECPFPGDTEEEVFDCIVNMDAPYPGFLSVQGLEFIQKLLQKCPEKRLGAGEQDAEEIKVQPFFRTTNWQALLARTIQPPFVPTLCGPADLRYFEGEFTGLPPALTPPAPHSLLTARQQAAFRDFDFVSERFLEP
CDK5/P25, sequence (Q00535 whole entry): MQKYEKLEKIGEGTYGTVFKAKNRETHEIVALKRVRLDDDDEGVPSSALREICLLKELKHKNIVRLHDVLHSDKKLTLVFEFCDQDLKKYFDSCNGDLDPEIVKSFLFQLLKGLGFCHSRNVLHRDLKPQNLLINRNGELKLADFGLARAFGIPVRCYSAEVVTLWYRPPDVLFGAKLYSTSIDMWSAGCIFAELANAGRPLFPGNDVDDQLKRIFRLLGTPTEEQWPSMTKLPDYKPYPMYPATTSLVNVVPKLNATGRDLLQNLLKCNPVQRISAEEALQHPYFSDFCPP
CDK5/P25, sequence (Q15078 99-307 partner limits assumed): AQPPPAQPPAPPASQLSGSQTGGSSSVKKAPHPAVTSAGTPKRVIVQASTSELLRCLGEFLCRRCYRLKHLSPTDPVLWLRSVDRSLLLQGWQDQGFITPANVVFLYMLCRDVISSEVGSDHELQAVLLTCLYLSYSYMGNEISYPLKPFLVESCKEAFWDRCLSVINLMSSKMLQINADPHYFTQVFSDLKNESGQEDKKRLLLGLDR

COc1cc(-c2cncc(-c3ccc(N4CCN(C)CC4)cc3)c2C)cc(F)c1C(N)=O [Compound 26a, 2-Fluoro-6-methoxy-4-(4-methyl-5-(4-(4-methylpiperazin-1-yl)phenyl)pyridin-3-yl)benzamide]
% enzyme activity [1]: 68.79% | remaining activity at 1 µM [1]: 68.8% | remaining activity at 1 µM [2]: 100% | % enzyme activity [3]: 93.15% | remaining activity at 1 µM [4]: 95.5% | remaining activity at 1 µM [5]: 95.7% | % enzyme activity [6]: 93.55% | remaining activity at 1 µM [7]: 94.6% | remaining activity at 1 µM [8]: 90.6%

COc1cc(-c2cncc(-c3ccc(N4C[C@@H](C)N(C)[C@@H](C)C4)cc3)c2C)cc(F)c1C(N)=O [Compound 26c, 2-Fluoro-6-methoxy-4-(4-methyl-5-(4-((3R,5S)-3,4,5-trimethylpiperazin-1-yl)phenyl)pyridin-3-yl)benzamide]
% enzyme activity [1]: 81.71% | remaining activity at 1 µM [1]: 82.4% | remaining activity at 1 µM [2]: 100% | % enzyme activity [3]: 94.01% | remaining activity at 1 µM [4]: 98.9% | remaining activity at 1 µM [5]: 96.1% | % enzyme activity [6]: 96.44% | remaining activity at 1 µM [7]: 94.8% | remaining activity at 1 µM [8]: 91.9%
